Laboratory results as given in patent US6673902B2, “Cyclin D binding factor, and uses thereof” (St. Jude Children's Research Hospital, priority 1996, dated 2004).

How the values were obtained:
[1] = test system: 32P-BS2 Probe; assay: EMSA with 32P-BS2 probe on transfection lysates of NIH-3T3 fibroblasts; assay type: binding; conditions: EMSA, 32P-BS2 probe, lysates of transfected NIH-3T3 fibroblasts
Protocol: (§1) Double-stranded oligonucleotides containing potential DMP1 binding sites (BS1 and BS2) and mutated versions (M1-M4) (FIG. 5B) are end-labeled with ^32P using the Klenow fragment of DNA polymerase and α-^32P-dATP (6000 Ci/mmol; Dupont NEN) (8). Nuclear extracts from mouse NIH-3T3 or CTLL cells are prepared with buffer containing 0.4 M NaCl (2). Mammalian cell extracts (15 μg protein) or Sf9 lysates (corresponding to 5×10^2 infected cells) containing ˜4 ng recombinant DMP1 are mixed with 3 ng of ^32P-labeled probe (1×10^5 cpm) in 15 ul Binding buffer containing 2.5 μg of poly(dI-dC) and 2.5 μg BSA and incubated at 4° C. for 30 minutes. For competition experiments, the indicated amounts of unlabeled oligonucleotides are added to the reactions before addition of the labeled probe. In some experiments, a bacterially produced GST-Ets2 fusion protein containing the complete Ets2 DNA-binding domain (10) is used in place of Sf9 extracts containing recombinant DMP1. Protein-DNA complexes are separated on nondenaturing 4% polyacrylamide gels as described (8). Where indicated, antiserum to DMP1 together with 2.5 μg salmon testis DNA (Sigma; used to reduce nonspecific DNA binding activity caused by serum addition) is preincubated with extracts for 30 minutes at 4° C. prior to initiation of binding reactions. Immune complexes are either removed by adsorption to protein A-Sepharose beads (immunodepletion experiments) or are allowed to remain (“supershift” experiments).
A series of deletion mutants and a point mutant of DMP1, K319E, (in which the lysine at position 319 of SEQ ID NO:1 is replaced by a glutamic acid) were prepared and used to determine the DNA-binding domain of DMP1 by electrophoretic mobility shift assay (EMSA) using a ^32P labeled BS2 probe. The DNA-binding domain of DMP1 was mapped to a central region containing the three MYB repeats plus adjacent flanking sequences: a BstEII to NcoI fragment encoding amino acids 87-458 of SEQ ID NO:1 (Table 1). This region alone was necessary and sufficient for DNA binding.

[2] = test system: DMP1-responsive promoter (pGL2BS2); assay: Transactivation of luciferase reporter plasmid under control of a DMP1-responsive promoter in NIH-3T3 fibroblasts; assay type: cell-based, mouse; conditions: expression vector 3 μg/10 ml, pGL2BS2 8 μg/10 ml; vector without insert set to 1.0
Source text: Coexpression of a D-type cyclin with DMP1 overrides the ability of DMP1 to transactivate a luciferase gene under the control of an artificial DMP1-responsive promoter (Table 4), as well as the ability of DMP1 to inhibit cell growth.

[3] = test system: NIH-3T3 fibroblasts; assay: BrdU incorporation in transfected NIH-3T3 fibroblasts; assay type: cell-based, mouse; conditions: for % Cells BrdU Positive: Table 2, expression vector 3 μg/10 ml; for % Cells BrdU Positive in 10% FCS: nonstarved cells; for % Cells BrdU Positive in 10% FCS / % Cells BrdU Positive in 0.1% FCS: additive None, labeled 22 hours; for % Cells BrdU Positive in 0.1% FCS: starved cells
Protocol: BrdU is added to NIH-3T3 cells after the experimental treatment and the cells were incubated for twenty-two hours in DMEM plus 10% fetal calf serum (FCS). The cells were then stained for DMP1 expression and/or BrdU incorporation. The nucleic acids encoding the wildtype DMP1 and the deletion and point mutants had been constructed so as to express the corresponding proteins with Flag-tags. To stain for DMP1 expression, mouse monoclonal anti-Flag antibodies (12 μg/ml) [Kodak] were incubated with the cells in TBS-Ca^+ without FCS for one hour at room temperature. After washing the cells, horse anti-mouse biotinylated antibodies at a 1:500 dilution were added to the cells in TBS plus 5% FCS and incubated for 30 minutes at room temperature. After washing the cells, strefptavidin linked to Texas red [Amersham] was then added at a 1:500 dilution for 30 minutes at room temperature. To stain for BrdU incorporation, 1.5N HCl was added to the cells for ten minutes at room temperature to denature the DNA. After washing the cells, sheep anti-BrdU antibodies [Fitzgerald] at a 1:12 dilution were then added for one hour at room temperature. After washing the cells, rabbit FITC-conjugated anti-sheep antibodies [Vector] at 1:100 dilution was then incubated for 30 minutes at room temperature.
NIH-3T3 cells were placed on cover slides and transfected with the expression vectors (pFLEX-DMP1 or the corresponding vector containing the deletion or point mutants of mouse DMP1 plus or minus cyclin D or E) for fourteen hours. The cells were then washed twice and DMEM plus 10% FCS was added and the cells incubated for eight hours. Half of the cells were starved by washing twice with 0.1% FCS, and then incubated for twenty-four hours in 0.1% FCS in DMEM. The remaining cells were not starved but were incubated for twenty-four hours in DMEM plus 10% FCS without washing. BrdU was added to both groups of cells and the cells were incubated for twenty-two hours in DMEM plus 10% FCS.
The cells were then restimulated to enter the cell cycle synchronously with DMEM plus 10% FCS. At the same time, 5′-Bromo-2′ Deoxyuridine (BrdU) was added to the medium. The cells were fixed 22 hours later in methanol acetone (1:1) and stained for BrdU incorporation and DMP1 expression as described in the Materials and Methods.

[4] = target: T1, recombinant DMP1 (Mus musculus, UniProt Q8CE22); assay: EMSA competition with Sf9 lysates producing recombinant DMP1; assay type: binding; conditions: excess unlabeled oligonucleotide
T1 construct: made in house; host or cells: Sf9 insect cells, pAcYM1 baculovirus vector; used as crude lysate (~4 ng DMP1 per reaction)
T1 sequence (Q8CE22 1-761): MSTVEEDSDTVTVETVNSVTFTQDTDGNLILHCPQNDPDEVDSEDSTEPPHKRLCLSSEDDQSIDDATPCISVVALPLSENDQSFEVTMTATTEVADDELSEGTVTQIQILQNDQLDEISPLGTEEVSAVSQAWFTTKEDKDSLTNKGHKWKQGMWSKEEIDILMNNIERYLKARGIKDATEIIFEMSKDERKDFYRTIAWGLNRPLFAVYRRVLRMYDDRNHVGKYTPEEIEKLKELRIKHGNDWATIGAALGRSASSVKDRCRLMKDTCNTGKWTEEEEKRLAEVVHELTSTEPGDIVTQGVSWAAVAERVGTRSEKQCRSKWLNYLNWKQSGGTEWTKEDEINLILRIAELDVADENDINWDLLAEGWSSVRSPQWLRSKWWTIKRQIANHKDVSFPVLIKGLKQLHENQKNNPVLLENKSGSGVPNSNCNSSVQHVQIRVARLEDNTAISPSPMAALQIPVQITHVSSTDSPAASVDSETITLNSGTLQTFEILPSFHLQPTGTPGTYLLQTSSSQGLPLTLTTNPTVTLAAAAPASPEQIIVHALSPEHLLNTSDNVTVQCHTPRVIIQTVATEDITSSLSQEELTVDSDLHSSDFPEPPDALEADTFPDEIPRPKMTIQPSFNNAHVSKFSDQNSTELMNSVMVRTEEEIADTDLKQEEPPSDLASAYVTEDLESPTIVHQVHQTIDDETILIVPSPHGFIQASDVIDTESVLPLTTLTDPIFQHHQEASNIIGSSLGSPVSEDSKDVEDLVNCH
Protocol: as §1
(§2) Using electrophoretic mobility shift assays (EMSA) performed after mixing a titrated excess (3 ng) of ^32P-end labeled BS1 probe with Sf9 lysates producing DMP1 (˜4 ng recombinant protein per reaction), a BS1-containing protein complex is detected that was competed with an excess of unlabeled BS1 oligonucleotide but not with mutant oligonucleotides M1 and M2 (FIG. 6A). […] More subtle mutations within this region may be tolerated, because high concentrations of M4 competed for BS1 binding to both Ets2 and DMP1 in subsequent studies (FIG. 5B and see below). DMP1 also binds a BS2 probe, and the binding is competed by excess BS2 or BS1 (FIG. 6B). In agreement with the site selection frequencies (FIG. 5A), binding of ^32P-BS1 under equivalent conditions was competed more efficiently by excess unlabeled BS1 than by BS2 (FIG. 6B). […] In agreement, Ets2 binding to BS1 could be competed with excess unlabeled BS1 and M3, but not by BS2 (FIG. 6C). Therefore, although both DMP1 and Ets2 can each bind to BS1 sequences, their exclusive interactions with BS2 and M3, respectively, help to distinguish DMP1 and Ets binding activities (summarized in FIG. 5B).

[5] = target: T2, GST-Ets2 fusion protein (Homo sapiens, UniProt P15036); assay: EMSA competition with bacterial GST-Ets2 fusion protein; assay type: binding; conditions: excess unlabeled oligonucleotide
T2 construct: made in house; host or cells: bacteria
T2 sequence (P15036 363-443 limits assumed): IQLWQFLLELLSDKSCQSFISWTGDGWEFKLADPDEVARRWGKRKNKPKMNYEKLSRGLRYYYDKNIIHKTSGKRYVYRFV
Protocol: as §1, §2

[6] = target: T3, cyclin D1 (Mus musculus, UniProt P25322); assay: Flag immunoprecipitation from SF9 lysates and Western blot for cyclin D1; assay type: binding; conditions: cotransfected with cyclin D1 in SF9 cells
T3 construct: expressed in transfected cells; host or cells: SF9 insect cells
Source text: The series of DMP1 deletion mutants and the K319E point mutant were then used to determine the cyclin D binding domain of DMP1. Expression vectors encoding murine wild-type DMP1, the corresponding deletion mutations, or K319E (i.e., wildtype DMP1 and M1-M11, defined in FIG. 10, Table 1) were cotransfected with an expression vector encoding cyclin D1 into SF9 cells. Wildtype DMP1 and M1-M11 were expressed containing Flag-tags. SF9 lysates were immunoprecipitated with an antibody raised against the Flag-tag. The immunoprecipitates were resolved individually by gel electrophoresis, and then Western blotted with an antibody raised against cyclin D1. […] Therefore, deletion of the N-terminal domain of DMP1 (i.e., amino acids 1-223) abrogates its ability to interact with D-type cyclins, and thus, the region of DMP1 from residues 1-223 contains a specific cyclin D interaction motif required for D-type cyclin-DMP1 association.

T3 sequence (P25322 whole entry): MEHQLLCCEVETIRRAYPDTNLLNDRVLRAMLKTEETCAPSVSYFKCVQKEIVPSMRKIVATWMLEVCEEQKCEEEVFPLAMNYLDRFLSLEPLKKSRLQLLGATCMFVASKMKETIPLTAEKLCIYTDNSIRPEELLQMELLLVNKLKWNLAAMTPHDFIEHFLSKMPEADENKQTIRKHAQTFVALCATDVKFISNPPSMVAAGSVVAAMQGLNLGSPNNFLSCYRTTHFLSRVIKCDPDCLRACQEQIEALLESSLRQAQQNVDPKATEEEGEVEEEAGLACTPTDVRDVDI

Substance	Luciferase Activity [2]	competition for 32P-BS1 probe binding to DMP1 [4]	band corresponding to cyclin D1 in Flag immunoprecipitate [6]	32P-labeled Band [1]	% Cells BrdU Positive [3] [%]	competition for BS1 binding to Ets2 [5]	% Cells BrdU Positive in 10% FCS [3] [%]	% Cells BrdU Positive in 0.1% FCS [3] [%]	competition for BS2 probe binding to DMP1 [4]
M1: DMP1 deletion mutant (EcoNI), amino acids 1-661 of SEQ ID NO:1	6.7	not	–	Yes	12	–	–	–	–
M2: DMP1 deletion mutant (StuI), amino acids 1-520 of SEQ ID NO:1	3.6	not	–	Yes	20	–	–	–	–
M4: DMP1 deletion mutant (BstBI), amino acids 1-380 of SEQ ID NO:1	1.0	competed	–	No	52	competed	–	–	–
M5: DMP1 deletion mutant (XbaI and BstEII), amino acids 87-761 of SEQ ID NO:1	6.2	–	particularly faint	Yes	32	–	–	–	–
M6: DMP1 deletion mutant, amino acids 1-86; 170-761 of SEQ ID NO:1	1.0	–	–	No	48	–	44	47	–
M8: DMP1 deletion mutant, amino acids 1-237; 381-761 of SEQ ID NO:1	1.1	–	–	No	54	–	54	54	–
oligonucleotide BS1: probe/competitor BS1, SEQ ID NO:10, DMP1 binding site with GGA core (DNA AATTGACCCGGATGTAGGTACGC; chemistry not given here)	–	competed	–	–	–	competed	–	–	competed

The next lines start with results.

Luciferase Activity [2]	competition for 32P-BS1 probe binding to DMP1 [4]	band corresponding to cyclin D1 in Flag immunoprecipitate [6]	Substance	32P-labeled Band [1]	% Cells BrdU Positive [3] [%]	competition for BS1 binding to Ets2 [5]	% Cells BrdU Positive in 10% FCS [3] [%]	% Cells BrdU Positive in 0.1% FCS [3] [%]	competition for BS2 probe binding to DMP1 [4]
0.9	–	–	M7: DMP1 deletion mutant, amino acids 1-169; 238-761 of SEQ ID NO:1	No	36	–	–	–	–
1.0	–	cyclin D1 binding domain is missing	M9: DMP1 5′ deletion mutant, amino acids 234-761 of SEQ ID NO:1	No	50	–	–	–	–
1.1	–	–	M10: DMP1 deletion mutant (BstEII and NcoI), amino acids 87-458 of SEQ ID NO:1	Yes	56	–	–	–	–
